Reference: patent US20260285850A1, “SUBSTITUTED OXAZOLIDINONES AND IMIDAZOLINONES AS HERBICIDES” (FMC CORPORATION, priority 2023, published 2026)

Tests used:
Assay type in all cases: in vivo
[1] = test system: barnyardgrass (Echinochloa crus-galli); assay: Test A postemergence application, visual injury rating 0-100; details: Postemergence
Excerpt: (§1) Seeds of plant species selected from barnyardgrass (Echinochloa crus-galli), blackgrass (Alopecurus myosuroides), corn (Zea mays), foxtail, giant (giant foxtail, Setaria faberi), green foxtail (Setaria viridis), goosegrass (Eleusine indica), kochia (Bassia scoparia), oat, wild (wild oat, Avena fatua), palmer (palmer amaranth, palmer pigweed, Amaranthus palmeri), ragweed (common ragweed, Ambrosia artemisiifolia), ryegrass, Italian (italian ryegrass, Lolium multiflorum), soybean (Glycine max) and wheat (Triticum aestivum) were planted into a blend of loam soil and sand and treated preemergence with a directed soil spray using test chemicals formulated in a non-phytotoxic solvent mixture which included a surfactant.
(§2) At the same time, plants selected from these crops and weed species and also galium (catchweed bedstraw, Galium aparine) and horseweed (Erigeron canadensis) were planted in pots containing the same blend of loam soil and sand and treated with postemergence applications of test chemicals formulated in the same manner. Plants ranged in height from 2 to 10 cm and were in the one- to two-leaf stage for the postemergence treatment. Treated plants and untreated controls were maintained in a greenhouse for 10 days, after which time all treated plants were compared to untreated controls and visually evaluated for injury. Plant response ratings, summarized in Table A, are based on a 0 to 100 scale where 0 is no effect and 100 is complete control. A dash (-) response means no test result.

[2] = test system: ryegrass, Italian (italian ryegrass, Lolium multiflorum); assay: as above; details: Postemergence
Excerpt: as §1, §2

soybean (Glycine max) [3] = assay: as above; details: Postemergence
Excerpt: as §1, §2

[4] = test system: oat, wild (wild oat, Avena fatua); assay: as above; details: Postemergence
Excerpt: as §1, §2

[5] = test system: galium (catchweed bedstraw, Galium aparine); assay: as above; details: Postemergence
Excerpt: as §1, §2

corn (Zea mays) [6] = assay: as above; details: Postemergence
Excerpt: as §1, §2

[7] = test system: blackgrass (Alopecurus myosuroides); assay: as above; details: Postemergence
Excerpt: as §1, §2

[8] = test system: ragweed (common ragweed, Ambrosia artemisiifolia); assay: as above; details: Postemergence
Excerpt: as §1, §2

[9] = test system: wheat (Triticum aestivum); assay: as above; details: Postemergence
Excerpt: as §1, §2

kochia (Bassia scoparia) [10] = assay: as above; details: Postemergence
Excerpt: as §1, §2

[11] = test system: horseweed (Erigeron canadensis); assay: as above; details: Postemergence
Excerpt: as §1, §2

[12] = test system: palmer (palmer amaranth, palmer pigweed, Amaranthus palmeri); assay: as above; details: Postemergence
Excerpt: as §1, §2

[13] = test system: barnyardgrass (Echinochloa crus-galli); assay: Test A preemergence soil spray, visual injury rating 0-100; details: 10 days; for Barnyardgrass plant response rating (0 to 100 scale): 125 g ai/ha
Excerpt: as §1, §2

[14] = test system: ryegrass, Italian (italian ryegrass, Lolium multiflorum); assay: as above; details: 10 days; for Ryegrass, Italian plant response rating (0 to 100 scale): 125 g ai/ha
Excerpt: as §1, §2

soybean (Glycine max) [15] = assay: as above; details: 10 days; for Soybean plant response rating (0 to 100 scale): 125 g ai/ha
Excerpt: as §1, §2

[16] = test system: oat, wild (wild oat, Avena fatua); assay: as above; details: 10 days; for Oat, Wild plant response rating (0 to 100 scale): 125 g ai/ha
Excerpt: as §1, §2

corn (Zea mays) [17] = assay: as above; details: 10 days; for Corn plant response rating (0 to 100 scale): 125 g ai/ha
Excerpt: as §1, §2

[18] = test system: blackgrass (Alopecurus myosuroides); assay: as above; details: 10 days; for Blackgrass plant response rating (0 to 100 scale): 125 g ai/ha
Excerpt: as §1, §2

[19] = test system: ragweed (common ragweed, Ambrosia artemisiifolia); assay: as above; details: 10 days; for Ragweed plant response rating (0 to 100 scale): 125 g ai/ha
Excerpt: as §1, §2

[20] = test system: wheat (Triticum aestivum); assay: as above; details: 10 days; for Wheat plant response rating (0 to 100 scale): 125 g ai/ha
Excerpt: as §1, §2

kochia (Bassia scoparia) [21] = assay: as above; details: 10 days; for Kochia plant response rating (0 to 100 scale): 125 g ai/ha
Excerpt: as §1, §2

[22] = test system: palmer (palmer amaranth, palmer pigweed, Amaranthus palmeri); assay: as above; details: 10 days; for Amaranth, Palmer plant response rating (0 to 100 scale): 125 g ai/ha
Excerpt: as §1, §2

[23] = 31 g ai/ha, greenhouse 10 days, 0 no effect, 100 complete control
[24] = 125 g ai/ha, 10 days, 0 is no effect, 100 is complete control
[25] = 31 g ai/ha, 0 = no effect, 100 = complete control
[26] = 0 = no effect, 100 = complete control

SMILES: CC1(C(=O)NC2C=CC(C(=O)NS(=O)(=O)C(C)(C)C)C2)CN(c2cc(F)cc(F)c2)C(=O)O1 (stereo not shown) [Compound 80]
- Barnyardgrass plant response rating (0 to 100 scale) [1, 23]: 80
- Barnyardgrass plant response rating (0 to 100 scale) [1, 24]: 90
- Ryegrass, Italian plant response rating (0 to 100 scale) [2, 23]: 70
- Ryegrass, Italian plant response rating (0 to 100 scale) [2, 24]: 80
- Soybean plant response rating (0 to 100 scale) (soybean (Glycine max) [3]; [23]): 70
- Soybean plant response rating (0 to 100 scale) (soybean (Glycine max) [3]; [24]): 80
- Oat, Wild plant response rating (0 to 100 scale) [4, 23]: 90
- Oat, Wild plant response rating (0 to 100 scale) [4, 24]: 90
- Galium plant response rating (0 to 100 scale) [5, 23]: 80
- Galium plant response rating (0 to 100 scale) [5, 24]: 80
- Corn plant response rating (0 to 100 scale) (corn (Zea mays) [6]; [23]): 30
- Corn plant response rating (0 to 100 scale) (corn (Zea mays) [6]; [24]): 100
- Blackgrass plant response rating (0 to 100 scale) [7, 23]: 30
- Blackgrass plant response rating (0 to 100 scale) [7, 24]: 70
- Ragweed plant response rating (0 to 100 scale) [8, 23]: 0
- Ragweed plant response rating (0 to 100 scale) [8, 24]: 40
- Wheat plant response rating (0 to 100 scale) [9, 23]: 60
- Wheat plant response rating (0 to 100 scale) [9, 24]: 90
- Kochia plant response rating (0 to 100 scale) (kochia (Bassia scoparia) [10]; [23]): 70
- Kochia plant response rating (0 to 100 scale) (kochia (Bassia scoparia) [10]; [24]): 80
- Horseweed plant response rating (0 to 100 scale) [11, 23]: 10
- Horseweed plant response rating (0 to 100 scale) [11, 24]: 70
- Amaranth, Palmer / Pigweed, Palmer plant response rating (0 to 100 scale) [12, 23]: 50
- Amaranth, Palmer / Pigweed, Palmer plant response rating (0 to 100 scale) [12, 24]: 70
- Barnyardgrass plant response rating (0-100) [13, 25]: 0
- Barnyardgrass plant response rating (0 to 100 scale) [13, 26]: 40
- Ryegrass, Italian plant response rating (0-100) [14, 25]: 0
- Ryegrass, Italian plant response rating (0 to 100 scale) [14, 26]: 60
- Soybean plant response rating (0-100) (soybean (Glycine max) [15]; [25]): 0
- Soybean plant response rating (0 to 100 scale) (soybean (Glycine max) [15]; [26]): 10
- Oat, Wild plant response rating (0-100) [16, 25]: 0
- Oat, Wild plant response rating (0 to 100 scale) [16, 26]: 30
- Corn plant response rating (0-100) (corn (Zea mays) [17]; [25]): 0
- Corn plant response rating (0 to 100 scale) (corn (Zea mays) [17]; [26]): 0
- Blackgrass plant response rating (0-100) [18, 25]: 0
- Blackgrass plant response rating (0 to 100 scale) [18, 26]: 30
- Ragweed plant response rating (0-100) [19, 25]: 10
- Ragweed plant response rating (0 to 100 scale) [19, 26]: 0
- Wheat plant response rating (0-100) [20, 25]: 0
- Wheat plant response rating (0 to 100 scale) [20, 26]: 50
- Kochia plant response rating (0-100) (kochia (Bassia scoparia) [21]; [25]): 0
- Kochia plant response rating (0 to 100 scale) (kochia (Bassia scoparia) [21]; [26]): 70
- Amaranth, Palmer plant response rating (0-100) [22, 25]: 0
- Amaranth, Palmer plant response rating (0 to 100 scale) [22, 26]: 50

SMILES: CCS(=O)(=O)NC(=O)C1C=CC(NC(=O)C2(C)CN(c3cc(F)cc(F)c3)C(=O)O2)C1 (stereo not shown) [Compound 81]
- Barnyardgrass plant response rating (0 to 100 scale) [1, 23]: 90
- Barnyardgrass plant response rating (0 to 100 scale) [1, 24]: 90
- Ryegrass, Italian plant response rating (0 to 100 scale) [2, 23]: 50
- Ryegrass, Italian plant response rating (0 to 100 scale) [2, 24]: 70
- Soybean plant response rating (0 to 100 scale) (soybean (Glycine max) [3]; [23]): 30
- Soybean plant response rating (0 to 100 scale) (soybean (Glycine max) [3]; [24]): 50
- Oat, Wild plant response rating (0 to 100 scale) [4, 23]: 80
- Oat, Wild plant response rating (0 to 100 scale) [4, 24]: 90
- Galium plant response rating (0 to 100 scale) [5, 23]: 80
- Galium plant response rating (0 to 100 scale) [5, 24]: 80
- Corn plant response rating (0 to 100 scale) (corn (Zea mays) [6]; [23]): 60
- Corn plant response rating (0 to 100 scale) (corn (Zea mays) [6]; [24]): 100
- Blackgrass plant response rating (0 to 100 scale) [7, 23]: 0
- Blackgrass plant response rating (0 to 100 scale) [7, 24]: 50
- Ragweed plant response rating (0 to 100 scale) [8, 23]: 20
- Ragweed plant response rating (0 to 100 scale) [8, 24]: 50
- Wheat plant response rating (0 to 100 scale) [9, 23]: 90
- Wheat plant response rating (0 to 100 scale) [9, 24]: 90
- Kochia plant response rating (0 to 100 scale) (kochia (Bassia scoparia) [10]; [23]): 80
- Kochia plant response rating (0 to 100 scale) (kochia (Bassia scoparia) [10]; [24]): 90
- Horseweed plant response rating (0 to 100 scale) [11, 23]: 30
- Horseweed plant response rating (0 to 100 scale) [11, 24]: 70
- Amaranth, Palmer / Pigweed, Palmer plant response rating (0 to 100 scale) [12, 23]: 70
- Amaranth, Palmer / Pigweed, Palmer plant response rating (0 to 100 scale) [12, 24]: 70
- Barnyardgrass plant response rating ([13]; 31 g ai/ha, 0 to 100 scale): 90
- Barnyardgrass plant response rating (0 to 100 scale) [13, 26]: 90
- Ryegrass, Italian plant response rating ([14]; 31 g ai/ha, 0 to 100 scale): 60
- Ryegrass, Italian plant response rating (0 to 100 scale) [14, 26]: 80
- Soybean plant response rating (soybean (Glycine max) [15]; 31 g ai/ha, 0 to 100 scale): 10
- Soybean plant response rating (0 to 100 scale) (soybean (Glycine max) [15]; [26]): 70
- Oat, Wild plant response rating ([16]; 31 g ai/ha, 0 to 100 scale): 40
- Oat, Wild plant response rating (0 to 100 scale) [16, 26]: 70
- Corn plant response rating (corn (Zea mays) [17]; 31 g ai/ha, 0 to 100 scale): 0
- Corn plant response rating (0 to 100 scale) (corn (Zea mays) [17]; [26]): 80
- Blackgrass plant response rating ([18]; 31 g ai/ha, 0 to 100 scale): 30
- Blackgrass plant response rating (0 to 100 scale) [18, 26]: 70
- Ragweed plant response rating ([19]; 31 g ai/ha, 0 to 100 scale): 20
- Ragweed plant response rating (0 to 100 scale) [19, 26]: 10
- Wheat plant response rating ([20]; 31 g ai/ha, 0 to 100 scale): 40
- Wheat plant response rating (0 to 100 scale) [20, 26]: 90
- Kochia plant response rating (kochia (Bassia scoparia) [21]; 31 g ai/ha, 0 to 100 scale): 70
- Kochia plant response rating (0 to 100 scale) (kochia (Bassia scoparia) [21]; [26]): 90
- Amaranth, Palmer (Pigweed, Palmer) plant response rating ([22]; 31 g ai/ha, 0 to 100 scale): 50
- Amaranth, Palmer plant response rating (0 to 100 scale) [22, 26]: 90
